Results taken from patent US20220411847A1, “GLUCOSE/GALACTOSE BIOSENSORS AND METHODS OF USING SAME” (Duke University, priority 2015, published 2022).
One block for each substance: values may come before it.

Experiments:
[1] = Thermal denaturation followed by fluorescence ratio, two-state fit; assay type: physicochemical; settings: thermal stability of the 183C acrylodan conjugate mutant
Description: (§1) The titration series were mixed with GGBP183C⋅acrylodan or BD_SM4⋅acrylodan conjugates in 384-well microtiter plates. The temperature dependence of the titrations was measured in a real-time PCR machine (Roche LightCycler 480) by determining the ratio of fluorescence emission intensities at 488, 510, and 580 nm (excitation at 440 nm) as a function of temperature (290-370K). Temperatures were advanced in 1K steps. At each temperature data was collected for at 1-second intervals for 60 seconds at which point the signal had relaxed to a steady value associated with the new temperature. Collection times were adjusted to minimize photobleaching (which was not detectable under these experimental conditions). Data reduction software was developed to convert these observations into time-independent datasets that record fluorescence as a function of temperature for each well and associate wells with their concentration of titrant and additive. Management tools were developed to maintain a database of titrations and their analyses.
Fits of these equation systems to experimental observations such as shown in FIG. 5 require good initial estimates of the parameters. These can then be refined using multi-dimensional conjugate gradient methods. To obtain local fits for protein thermostability in the absence of ligand we solve
This gives excellent fits (FIG. 7).

[2] = Glucose titration at room temperature on Nanodrop3300 fluorimeter; assay type: binding
Description: (§2) In addition to the Roche LightCycler, which has a limited choice of emission wavelengths, data for selected mutants also was measured at room temperature on a Nanodrop3300 (Thermo Scientific) fluorimeter, which records full emission spectra. Emission intensities at a particular wavelength were extracted by integration of the spectral emission intensities over a 20-nm interval centered on that wavelength.
(§3) Signals S (either single-wavelength emission intensities, LT, or ratios of intensities at two wavelengths, Rig) were fit to ligand-binding isotherms:
(§4) where [L] is the ligand concentration and Kd the dissociation constant corresponding to ^appKd or ^trueKd for fits to R12 (weighted by the relative contributions of ^satβ at the two different wavelengths) and Iλ respectively. For a given isothermal titration, values for ^appKd and ^true Kd were obtained using a non-linear fitting algorithm in which these two parameters were simultaneously fit to the three experimental binding isotherms using equations 29 and 30, with the two monochromatic isotherms sharing the same ^trueKd value. Three separate pairs of ^apoβ and ^satβ were fit in this procedure.

[3] = Galactose titration at room temperature on Nanodrop3300 fluorimeter; assay type: binding; settings: ^e noisy data
Description: as §2, §3, §4

[4] = Fluorescence emission response to ligand binding; set-up: key to Response Intensity^c: +, increases in response to ligand; —: decreases; 0, no change in the glucose titration; key to Response Shape^b: m, monochromatic; d, dichromatic (i.e. spectral shape changes); 0, no change in the glucose titration; settings: glucose titration; Nanodrop3300; room temperature
Description: as §1, §2

[5] = Isothermal glucose titrations from fluorescent landscapes (Roche LightCycler); assay type: binding
Description: as §1
The response of acrylodan to glucose binding was separated from the effects of thermal denaturation by extracting binding isotherms within the temperature range where the apo-protein remains >99% folded (T<320 K; FIG. 7). Within this temperature range, binding isotherms were constructed by extracting fluorescence values across different wells, each containing different glucose concentrations, at a given temperature, and fit individually with high accuracy to isotherms (FIG. 8):
using linear baselines which vary individually in accordance with the tilt of the S, S1, and S2 baseplanes that correspond the saturated glucose complex. The individually fit Kd(T) values were converted into ΔGb(T) and fit to the Gibbs-Helmholtz equation 9 (FIG. 9).
(§5) Analysis of mutant affinity values: Isothermal glucose titrations were extracted from the fluorescent landscape or emission datasets as described above. Monochromatic emission intensities Iλ. (these intensities correspond to a bandpass intensity recorded with a physical filter in the case of the Roche LightCycler) were fit to
(§6) where ^apoIλ2 ^apoIλ2 and ^satIλ2^satIλ2 are the emission intensities of the monochromatic signal at wavelength λ2λ2 of the ligand-free and ligand-bound protein, respectively. Equation 28 illustrates that the ^appKd ^appKd values obtained by fits of 25 to ratiometric signals are wavelength dependent. To obtain wavelength-independent values needed for comparison of mutant proteins, it is necessary to simultaneously fit ^appKd ^appKd to the ratiometric signal and ^trueKd ^trueKd to the two monochromatic signals. For a given isothermal titration, values for ^appKd ^appKd and ^trueKd ^trueKd were obtained using a non-linear fitting algorithm in which these two parameters were simultaneously fit to the three experimental binding isotherms using equations 23 and 27, with the two monochromatic isotherms sharing the same ^trueKd ^trueKd value. Three separate pairs of linear ^apoβ ^apoβ and ^satβ ^satβ baselines were fit in this procedure. TABLES 1-5 record the ^trueKd ^trueKd values at 25° C., obtained by analysis of Roche LightCycler data in 488 nm and 510 nm channels. The uncertainty of the fit (‘error’) was obtained using a boot-strapping technique in which 37% of the data was replicated. In all cases, no binding was recorded if one of ^appKd ^appKd or ^trueKd ^trueKd exceeded 200 mM. The glucose constant of GGBP183 C-acrylodan is 4.21±0.08 mM at 25° C.

[6] = Galactose affinities of the mutants that bind glucose (Roche LightCycler); assay type: binding; settings: trueKd at 25° C., 183C acrylodan conjugates, read-out: Kd^298K(galactose)/mM
Excerpt: as §5, §6
The galactose affinities for those mutants that bind glucose were also determined.

[7] = Isothermal glucose titrations from fluorescent landscapes (Roche LightCycler); assay type: binding; settings: 37° C.; mutations in GGBP183C⋅acrylodan; read-out: glucose Kd values at 37° C.
[8] = apparent, ratiometric signal at the listed wavelength pair, read-out: Affinities (mM)^d Glucose aPPKa
[9] = from monochromatic signals, read-out: Affinities (mM)^d Glucose trueKa
[10] = apparent, ratiometric signal at the listed wavelength pair, read-out: Affinities (mM)^d Galactose ^appKd
[11] = from monochromatic signals, read-out: Affinities (mM)^d Galactose ^trueKd
[12] = trueKd at 25° C., 183C acrylodan conjugates, LightCycler 488 nm and 510 nm channels, ± = bootstrap uncertainty of fit, read-out: Kd^298K(glucose)/mM
[13] = 25° C., read-out: glucose affinities

Kd [2, 8]: 0.06 mM
Kd [2, 9]: 0.06 mM
Kd [3, 10]: 0.82 mM
Kd [3, 11]: 0.93 mM
Response Intensity^c [4]: —
Response Shape^b [4]: m
Substance: A155F: GGBP 183C acrylodan conjugate with mutation A155F
Tm/K [1]: 321 K

Kd [5, 12]: 13.5 ± 2.5 mM
Kd [6]: 17.7 ± 2.1 mM
Substance: A155H: GGBP 183C acrylodan conjugate with mutation A155H
Tm/K [1]: 314 K

Substance: A155K: GGBP 183C acrylodan conjugate with mutation A155K
Tm/K [1]: 318 K

Substance: A155L: GGBP 183C acrylodan conjugate with mutation A155L
Tm/K [1]: 320 K

Kd [2, 8]: 0.05 mM
Kd [2, 9]: 0.05 mM
Kd [3, 10]: 6.7 mM
Kd [3, 11]: 8.7 mM
Response Intensity^c [4]: —
Response Shape^b [4]: m
Substance: A155M: GGBP 183C acrylodan conjugate with mutation A155M
Tm/K [1]: 321 K

Substance: A155Q: GGBP 183C acrylodan conjugate with mutation A155Q
Tm/K [1]: 321 K

Kd [2, 8]: 0.31 mM
Kd [2, 9]: 0.35 mM
Response Intensity^c [4]: —
Response Shape^b [4]: m?
Substance: A155S: GGBP 183C acrylodan conjugate with mutation A155S
Tm/K [1]: 321 K

Substance: A155W: GGBP 183C acrylodan conjugate with mutation A155W
Tm/K [1]: 322 K

Substance: A155Y: GGBP 183C acrylodan conjugate with mutation A155Y
Tm/K [1]: 321 K

Kd [6]: 90 ± 21 mM
Substance: D14A: GGBP 183C acrylodan conjugate with mutation D14A
Tm/K [1]: 317 K

Substance: D14E: GGBP 183C acrylodan conjugate with mutation D14E
Tm/K [1]: 318 K

Substance: D14H: GGBP 183C acrylodan conjugate with mutation D14H
Tm/K [1]: 317 K

Substance: D14L: GGBP 183C acrylodan conjugate with mutation D14L
Tm/K [1]: 311 K

Substance: D14N: GGBP 183C acrylodan conjugate with mutation D14N
Tm/K [1]: 317 K

Substance: D14T: GGBP 183C acrylodan conjugate with mutation D14T
Tm/K [1]: 316 K

Substance: D154A: GGBP 183C acrylodan conjugate with mutation D154A
Tm/K [1]: 320 K

Substance: D154N: GGBP 183C acrylodan conjugate with mutation D154N
Tm/K [1]: 318 K

Substance: D236A: GGBP 183C acrylodan conjugate with mutation D236A
Tm/K [1]: 320 K

Substance: D236N: GGBP 183C acrylodan conjugate with mutation D236N
Tm/K [1]: 320 K

Substance: F16A: GGBP 183C acrylodan conjugate with mutation F16A
Tm/K [1]: 319 K

Substance: F16L: GGBP 183C acrylodan conjugate with mutation F16L
Tm/K [1]: 321 K

Kd [5, 13]: ~0.2 mM
Substance: GGBP16C-acrylodan: F16C mutant of E. coli GGBP, acrylodan conjugate

Kd [5, 13]: ~0.2 mM
Substance: GGBP16C-badan: F16C mutant of E. coli GGBP, badan conjugate

Substance: H152A: GGBP 183C acrylodan conjugate with mutation H152A
Tm/K [1]: 316 K

Kd [5, 12]: 21.1 ± 0.9 mM
Kd [2, 8]: 15 mM
Kd [2, 9]: 16 mM
Response Intensity^c [4]: —
Response Shape^b [4]: d
Kd [7]: ~17 mM
Substance: H152F: GGBP 183C acrylodan conjugate with mutation H152F
Tm/K [1]: 321 K

Substance: H152K: GGBP 183C acrylodan conjugate with mutation H152K
Tm/K [1]: 319 K

Kd [5, 12]: 18.8 ± 1.3 mM
Kd [2, 8]: 20 mM
Kd [2, 9]: 15 mM
Kd [3, 10]: 21 mM
Kd [3, 11]: 21 mM
Response Intensity^c [4]: —
Response Shape^b [4]: d
Kd [7]: ~14 mM
Substance: H152N: GGBP 183C acrylodan conjugate with mutation H152N
Tm/K [1]: 322 K

Kd [5, 12]: 25.8 ± 2 mM
Kd [2, 8]: 4.6 mM
Kd [2, 9]: 5.1 mM
Response Intensity^c [4]: —
Response Shape^b [4]: d
Kd [7]: ~36 mM
Substance: H152Q: GGBP 183C acrylodan conjugate with mutation H152Q
Tm/K [1]: 322 K

Substance: K92A: GGBP 183C acrylodan conjugate with mutation K92A
Tm/K [1]: 323 K

Substance: M182W: GGBP 183C acrylodan conjugate with mutation M182W
Tm/K [1]: 322 K

Substance: N91A: GGBP 183C acrylodan conjugate with mutation N91A
Tm/K [1]: 326 K

Substance: N211A: GGBP 183C acrylodan conjugate with mutation N211A
Tm/K [1]: 317 K

Substance: N211F: GGBP 183C acrylodan conjugate with mutation N211F
Tm/K [1]: 323 K

Substance: N211H: GGBP 183C acrylodan conjugate with mutation N211H
Tm/K [1]: 320 K

Substance: N211K: GGBP 183C acrylodan conjugate with mutation N211K
Tm/K [1]: 315 K

Substance: N211M: GGBP 183C acrylodan conjugate with mutation N211M
Tm/K [1]: 317 K

Kd [2, 8]: 29 mM
Kd [2, 9]: 22 mM
Response Intensity^c [4]: —
Response Shape^b [4]: d
Substance: N211Q: GGBP 183C acrylodan conjugate with mutation N211Q
Tm/K [1]: 317 K

Substance: N211S: GGBP 183C acrylodan conjugate with mutation N211S
Tm/K [1]: 319 K

Substance: N211W: GGBP 183C acrylodan conjugate with mutation N211W
Tm/K [1]: 328 K

Substance: N211Y: GGBP 183C acrylodan conjugate with mutation N211Y
Tm/K [1]: 316 K

Substance: N256A: GGBP 183C acrylodan conjugate with mutation N256A
Tm/K [1]: 324 K

Substance: N256D: GGBP 183C acrylodan conjugate with mutation N256D
Tm/K [1]: 321 K

Substance: R158A: GGBP 183C acrylodan conjugate with mutation R158A
Tm/K [1]: 322 K

Substance: R158K: GGBP 183C acrylodan conjugate with mutation R158K
Tm/K [1]: 318 K

Substance: Y10A: GGBP 183C acrylodan conjugate with mutation Y10A
Tm/K [1]: 326 K
